{"source": "paper PMC11345752", "about": "“In Situ Biofilm Affinity-Based Protein Profiling Identifies the Streptococcal Hydrolase GbpB as the Target of a Carolacton-Inspired Chemical Probe” (Journal of the American Chemical Society, 2024)", "biological_target": "T1, FolD (Escherichia coli, UniProt P24186)", "T1 construct": "purified E. coli FolD", "assay": "dehydrogenase assay with purified FolD", "format": "biochemical", "note": "pIC50: −log10 of the molar value."}
{"compound": "COC(CC(=O)O)C(C)C(=O)C(C)/C=C(\\C)C1OC(=O)C(O)C(O)C=CC(C)CCCC1C", "note": "(stereo not shown) [carolacton]", "values": [{"measurement": "pIC50", "value": 7.03}]}
